Results taken from ChEMBL document CHEMBL1201862, “PubChem BioAssay data set” (2004).
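Exposure lasted 48 hours, with cells grown in 96-well plates and compounds tested at five concentrations. GI50 = concentration required for 50% inhibition of growth.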 Active and inactive are the calls of the source. No stated cut-off is given here; in the data, active = GI50 up to about 1.1 µM and inactive = higher.

Tests used:
Experiment in all cases: inhibition of tumour cell growth, NCI panel, 48 h
SNB-75 = system: SNB-75
SW-620 = system: SW-620
COLO 205 = system: COLO 205
MCF7 = system: MCF7
SN12C = system: SN12C
LOX IMVI = system: LOX IMVI
A498 = system: A498
IGROV-1 = system: IGROV-1
NCI/ADR-RES = system: NCI/ADR-RES
OVCAR-5 = system: OVCAR-5
T47D = system: T47D
UACC-257 = system: UACC-257
MDA-N = system: MDA-N
KM12 = system: KM12
NCI-H226 = system: NCI-H226
HOP-92 = system: HOP-92
ACHN = system: ACHN
HCT-116 = system: HCT-116

Measured: GI50

Oc1ccc(-c2nc3ccccc3s2)cc1
inactive: SNB-75 37.4 µM | SW-620 65.5 µM | COLO 205 45.1 µM | MCF7 33.6 µM | SN12C 38 µM | LOX IMVI 21.4 µM | A498 47.4 µM | IGROV-1 25.7 µM | NCI/ADR-RES 31.8 µM | OVCAR-5 49.8 µM | T47D 21.5 µM | UACC-257 31 µM | MDA-N 32.9 µM | KM12 21.1 µM | NCI-H226 43.3 µM | HOP-92 35.9 µM | ACHN 45.8 µM | HCT-116 22.4 µM

Cc1cc(C)n(C(=O)CSc2nc3ccc(I)cc3c(=O)n2Cc2ccccc2)n1
inactive: SNB-75 25.3 µM | SW-620 87.1 µM | COLO 205 59.7 µM | MCF7 96.6 µM | SN12C 51.8 µM | LOX IMVI > 100 µM | A498 22.9 µM | IGROV-1 20 µM | NCI/ADR-RES 36.6 µM | OVCAR-5 > 100 µM | T47D 23.2 µM | UACC-257 33.9 µM | MDA-N > 100 µM | KM12 50.2 µM | NCI-H226 62.7 µM | HOP-92 15.5 µM | ACHN 44.5 µM | HCT-116 57 µM

C=C(C)C1CC/C(C)=C/CCC2(C)OC2CC/C(CO)=C\C1O (stereo not given)
inactive: SNB-75 45.7 µM | SW-620 > 100 µM | COLO 205 47.6 µM | MCF7 91.4 µM | SN12C > 100 µM | LOX IMVI > 100 µM | A498 > 100 µM | IGROV-1 68.1 µM | NCI/ADR-RES > 100 µM | OVCAR-5 > 100 µM | T47D > 100 µM | UACC-257 > 100 µM | MDA-N > 100 µM | KM12 > 100 µM | NCI-H226 > 100 µM | HOP-92 7.28 µM | ACHN > 100 µM | HCT-116 > 100 µM

O=c1c2ncn(C3CCCCO3)c2n(-c2ccccc2)c(=S)n1-c1ccccc1 (stereo not given)
inactive: SNB-75 7.69 µM | SW-620 > 65.9 µM | COLO 205 > 71.4 µM | MCF7 49.5 µM | SN12C 56.6 µM | LOX IMVI 56.5 µM | A498 30.7 µM | IGROV-1 28.6 µM | NCI/ADR-RES 30.1 µM | OVCAR-5 > 61.1 µM | T47D 2.31 µM | UACC-257 61.9 µM | MDA-N > 66.1 µM | KM12 > 76.4 µM | NCI-H226 25.9 µM | HOP-92 9.91 µM | ACHN 45.1 µM | HCT-116 45.5 µM

CC1(CF)SCc2nc3ccccc3n21 (stereo not given)
inactive: SNB-75 > 100 µM | SW-620 > 100 µM | COLO 205 > 100 µM | MCF7 > 100 µM | SN12C > 100 µM | LOX IMVI > 100 µM | A498 > 100 µM | IGROV-1 > 100 µM | NCI/ADR-RES > 100 µM | OVCAR-5 > 100 µM | T47D > 100 µM | UACC-257 > 100 µM | MDA-N > 100 µM | KM12 > 100 µM | NCI-H226 > 100 µM | HOP-92 > 100 µM | ACHN > 100 µM | HCT-116 > 100 µM

OCCCNCc1ccccn1
inactive: SNB-75 > 100 µM | SW-620 > 100 µM | COLO 205 > 100 µM | MCF7 > 100 µM | SN12C > 100 µM | LOX IMVI > 100 µM | A498 > 100 µM | IGROV-1 > 100 µM | NCI/ADR-RES > 100 µM | OVCAR-5 > 100 µM | T47D > 100 µM | UACC-257 > 100 µM | MDA-N > 100 µM | KM12 > 100 µM | NCI-H226 > 100 µM | HOP-92 > 100 µM | ACHN > 100 µM | HCT-116 > 100 µM

CC(C)(CO)CNc1nc(N)nc(Cl)c1C=O
inactive: SNB-75 35.6 µM | SW-620 33.5 µM | COLO 205 25.5 µM | MCF7 50.4 µM | SN12C 18.9 µM | LOX IMVI 16.4 µM | A498 > 100 µM | IGROV-1 20.1 µM | NCI/ADR-RES 42.2 µM | OVCAR-5 > 100 µM | T47D 42.9 µM | UACC-257 35.4 µM | MDA-N 25.5 µM | KM12 90.4 µM | NCI-H226 50.8 µM | HOP-92 26.2 µM | ACHN 48.8 µM | HCT-116 20 µM

O=C(c1no[n+]([O-])c1C(=O)c1csc2ccccc12)c1csc2ccccc12
inactive: SNB-75 15.1 µM | SW-620 2.21 µM | COLO 205 3.06 µM | MCF7 4.41 µM | SN12C 4.37 µM | LOX IMVI 1.25 µM | A498 15 µM | IGROV-1 1.4 µM | NCI/ADR-RES 15.6 µM | OVCAR-5 18.3 µM | T47D 5.96 µM | UACC-257 4.92 µM | MDA-N 8.69 µM | KM12 6.95 µM | NCI-H226 12.9 µM | HOP-92 2.16 µM | ACHN 4.54 µM | HCT-116 8.85 µM

Cc1ccc2c(c1)CC1(Cc3cccc(C)c3C1=O)C2=O (stereo not given)
inactive: SNB-75 > 100 µM | SW-620 > 100 µM | COLO 205 85.3 µM | MCF7 > 10 µM | SN12C > 100 µM | LOX IMVI > 10 µM | A498 > 100 µM | IGROV-1 > 100 µM | NCI/ADR-RES > 100 µM | OVCAR-5 37.3 µM | T47D > 10 µM | UACC-257 > 100 µM | MDA-N > 10 µM | NCI-H226 > 100 µM | HOP-92 50.7 µM | ACHN > 100 µM | HCT-116 64 µM

CSc1nc(SC)c2c(CO)c(Br)n(Cc3ccccc3)c2n1
inactive: SNB-75 13.6 µM | SW-620 > 100 µM | COLO 205 > 100 µM | MCF7 24.6 µM | SN12C 35.4 µM | LOX IMVI 25.3 µM | A498 4.32 µM | IGROV-1 16 µM | NCI/ADR-RES 24.7 µM | OVCAR-5 56.9 µM | T47D 14.9 µM | MDA-N > 100 µM | KM12 70 µM | NCI-H226 11.3 µM | HOP-92 17.2 µM | ACHN 15.3 µM | HCT-116 26.4 µM

C1=N/CCNCCNCC/N=C/c2ccccc2OCc2cccc(n2)COc2ccccc2/1
inactive: SNB-75 67.9 µM | SW-620 36.2 µM | COLO 205 > 100 µM | MCF7 21.2 µM | SN12C 43.8 µM | A498 > 100 µM | IGROV-1 52.6 µM | NCI/ADR-RES 23.1 µM | OVCAR-5 > 100 µM | T47D 57.4 µM | UACC-257 53.7 µM | MDA-N 15.2 µM | KM12 48.5 µM | NCI-H226 66.8 µM | HOP-92 71.4 µM | ACHN 28.6 µM | HCT-116 61 µM
